{"source": "ChEMBL document CHEMBL1151516", "about": "“Inhibition of HSV-1 protease by benzoxazinones” (Bioorg Med Chem Lett, 1996)"}
{"system": "not listed separately", "test": "Half-life in aqueous solution.", "type": "ADME", "units": {"half-life": "h"}}
{"smiles": "CCOc1nc2c(Cl)ccc(Cl)c2c(=O)o1", "half-life": 1}
{"smiles": "CC(C)Nc1nc2cc(NC(=O)C(C)NC(=O)OCc3ccccc3)ccc2c(=O)o1", "note": "(stereo not drawn)", "half-life": 171}
{"target": "T1, Capsid scaffolding protein (Herpes simplex virus (type 1 / strain 17), UniProt P10210)", "T1 sequence (P10210 whole entry)": "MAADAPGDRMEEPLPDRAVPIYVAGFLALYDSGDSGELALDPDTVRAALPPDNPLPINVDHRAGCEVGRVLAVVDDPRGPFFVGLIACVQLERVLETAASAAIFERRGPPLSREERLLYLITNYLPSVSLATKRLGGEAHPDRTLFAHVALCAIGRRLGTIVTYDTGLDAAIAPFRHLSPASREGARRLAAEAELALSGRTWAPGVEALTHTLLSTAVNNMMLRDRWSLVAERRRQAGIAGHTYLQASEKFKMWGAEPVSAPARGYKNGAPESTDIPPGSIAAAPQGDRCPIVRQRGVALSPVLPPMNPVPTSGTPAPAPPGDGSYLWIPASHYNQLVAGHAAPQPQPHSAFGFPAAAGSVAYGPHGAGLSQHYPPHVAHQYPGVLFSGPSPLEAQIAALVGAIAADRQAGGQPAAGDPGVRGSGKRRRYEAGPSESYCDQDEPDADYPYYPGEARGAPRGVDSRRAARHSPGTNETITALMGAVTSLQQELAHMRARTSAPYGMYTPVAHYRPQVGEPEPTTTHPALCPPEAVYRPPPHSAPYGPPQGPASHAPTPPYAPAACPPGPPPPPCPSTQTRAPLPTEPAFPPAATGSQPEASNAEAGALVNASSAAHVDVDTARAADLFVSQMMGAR", "test": "Inhibitory activity against herpes simplex type 1 protease (HSV-1 pr).", "units": {"IC50": "µM"}}
{"smiles": "CC(C)Nc1nc2cc(N)ccc2c(=O)o1", "IC50": 55}
{"smiles": "C[C@H](NC(=O)OCc1ccccc1)c1nc2cc(N)ccc2c(=O)o1", "IC50": 150}
{"smiles": "CCOc1nc2c(Cl)ccc(Cl)c2c(=O)o1", "IC50": 1.5}
{"smiles": "C[C@@H](NC(=O)OCc1ccccc1)c1nc2cccc(F)c2c(=O)o1", "IC50": 200}
{"smiles": "CC(C)Nc1nc2ccccc2c(=O)o1", "IC50": 25}
{"smiles": "CCc1cccc2nc([C@H](C)NC(=O)OCc3ccccc3)oc(=O)c12", "IC50": "> 300"}
{"smiles": "CCOc1nc2ccccc2c(=O)o1", "IC50": 25}
{"smiles": "Cc1cccc2nc([C@H](C)NC(=O)OCc3ccccc3)oc(=O)c12", "IC50": 120}
{"smiles": "C[C@H](NC(=O)OCc1ccccc1)c1nc2ccccc2c(=O)o1", "IC50": 50}
{"smiles": "CCOc1nc2cccc(CC)c2c(=O)o1", "IC50": 20}
{"smiles": "CC(NC(=O)OCc1ccccc1)C(=O)Nc1ccc2c(=O)oc([C@H](C)NC(=O)OCc3ccccc3)nc2c1", "note": "(stereo partly drawn)", "IC50": 12}
{"smiles": "CCOc1nc2cccc(Cl)c2c(=O)o1", "IC50": 7}
{"smiles": "CC(C)Nc1nc2cc(NC(=O)C(CC(N)=O)NC(=O)OCc3ccccc3)ccc2c(=O)o1", "note": "(stereo not drawn)", "IC50": 15}
{"smiles": "COc1ccc(Oc2nc3ccccc3c(=O)o2)cc1", "IC50": 2.5}
{"smiles": "C[C@H](NC(=O)OCc1ccccc1)c1nc2cccc(Cl)c2c(=O)o1", "IC50": "> 300"}
{"smiles": "CCCCNc1nc2ccccc2c(=O)o1", "IC50": 300}
{"smiles": "CCOc1nc2cccc(F)c2c(=O)o1", "IC50": 75}
{"smiles": "CC(C)Nc1nc2cc(NC(=O)C(C)NC(=O)OCc3ccccc3)ccc2c(=O)o1", "note": "(stereo not drawn)", "IC50": 5}
{"smiles": "CCOc1nc2cccc(C)c2c(=O)o1", "IC50": 15}
{"smiles": "O=c1oc(Oc2ccccc2)nc2ccccc12", "IC50": 10}
{"smiles": "C=CCOc1nc2ccccc2c(=O)o1", "IC50": 15}
{"smiles": "CC(Nc1nc2ccccc2c(=O)o1)c1ccccc1", "note": "(stereo not drawn)", "IC50": 60}
{"smiles": "COC(=O)C(C)Nc1nc2ccccc2c(=O)o1", "note": "(stereo not drawn)", "IC50": 25}
{"smiles": "C[C@H](NC(=O)OCc1ccccc1)c1nc2cccc(F)c2c(=O)o1", "IC50": 50}
{"smiles": "CC(C)COC(=O)Nc1ccc2c(=O)oc(NC(C)C)nc2c1", "IC50": 50}
{"smiles": "O=c1oc(Nc2cccc(F)c2)nc2ccccc12", "IC50": "> 300"}
